Test: mn = molality of the nth substance listed, in mol/kg
Settings: 101 kPa, Liquid; for viscosity: Capillary tube (Ostwald / Ubbelohde) method; for electrical conductivity: Dip type conductivity cell; for mass density: Pycnometric method; for speed of sound: Sing-around technique in a fixed-path interferometer

CCCCCCCCCCCCCCCC[N+](C)(C)CC.[Br-] [ethylhexadecyldimethylammonium bromide] + O
Settings	electrical conductivity [S/m]	mass density [kg/m3]	speed of sound [m/s]	viscosity [mPa·s]
298.15 K, m1 = 0.0002	0.0027	996.43	1498.5	0.8803
298.15 K, m1 = 0.0005	0.00707	996.47	1499.3	0.8841
298.15 K, m1 = 0.0008	0.0105	996.51	1500	0.887
298.15 K, m1 = 0.0012	0.0119	996.54	1500.3	0.8904
298.15 K, m1 = 0.0016	0.0127	996.56	1500.1	0.8929
298.15 K, m1 = 0.002	0.0138	996.58	1499.9	0.8952
298.15 K, m1 = 0.0025	0.0152	996.6	1499.9	0.8979
298.15 K, m1 = 0.003	0.0161	996.62	1499.7	0.9007
303.15 K, m1 = 0.0002	0.00301	994.49	1510.3	0.7889
303.15 K, m1 = 0.0005	0.00808	994.52	1511	0.792
303.15 K, m1 = 0.0008	0.0127	994.56	1511.8	0.7945
303.15 K, m1 = 0.0012	0.0144	994.59	1512.3	0.7978
303.15 K, m1 = 0.0016	0.0153	994.61	1512.2	0.8001
303.15 K, m1 = 0.002	0.0167	994.62	1512	0.8021
303.15 K, m1 = 0.0025	0.0178	994.64	1511.8	0.8047
303.15 K, m1 = 0.003	0.0194	994.66	1511.6	0.807
308.15 K, m1 = 0.0002	0.00338	992.55	1518.6	0.7097
308.15 K, m1 = 0.0005	0.00879	992.58	1519.2	0.7125
308.15 K, m1 = 0.0008	0.014	992.61	1519.9	0.7157
308.15 K, m1 = 0.0012	0.0161	992.63	1520.4	0.719
308.15 K, m1 = 0.0016	0.017	992.65	1520.2	0.7209
308.15 K, m1 = 0.002	0.0185	992.66	1520	0.7228
308.15 K, m1 = 0.0025	0.0195	992.67	1520	0.725
308.15 K, m1 = 0.003	0.0217	992.69	1519.5	0.7271
313.15 K, m1 = 0.0002	0.00364	990.61	1528.8	0.641
313.15 K, m1 = 0.0005	0.00952	990.63	1529.9	0.6432
313.15 K, m1 = 0.0008	0.0153	990.67	1530.4	0.6469
313.15 K, m1 = 0.0012	0.0183	990.68	1531.2	0.6502
313.15 K, m1 = 0.0016	0.0187	990.69	1531.1	0.652
313.15 K, m1 = 0.002	0.0209	990.7	1530.9	0.6539
313.15 K, m1 = 0.0025	0.0224	990.72	1530.7	0.6558
313.15 K, m1 = 0.003	0.0243	990.73	1530.5	0.6576
318.15 K, m1 = 0.0002	0.00396	988.67	1537.1	0.582
318.15 K, m1 = 0.0005	0.0107	988.68	1538.2	0.5832
318.15 K, m1 = 0.0008	0.0171	988.7	1538.5	0.587
318.15 K, m1 = 0.0012	0.021	988.73	1539.4	0.5903
318.15 K, m1 = 0.0016	0.023	988.74	1539.2	0.5922
318.15 K, m1 = 0.002	0.025	988.75	1539	0.5935
318.15 K, m1 = 0.0025	0.0265	988.76	1538.8	0.5954
318.15 K, m1 = 0.003	0.028	988.78	1538.6	0.5971
323.15 K, m1 = 0.0002	–	986.71	1541.7	0.5274
323.15 K, m1 = 0.0005	–	986.72	1542.8	0.5298
323.15 K, m1 = 0.0008	–	986.74	1543.5	0.5334
323.15 K, m1 = 0.0012	–	986.76	1544.5	0.5357
323.15 K, m1 = 0.0016	–	986.78	1544.3	0.5384
323.15 K, m1 = 0.002	–	986.79	1544.1	0.5398
323.15 K, m1 = 0.0025	–	986.8	1544	0.5413
323.15 K, m1 = 0.003	–	986.81	1543.8	0.5426

Source: the NIST ThermoML archive (doi:10.1021/je3003404)
